From patent publication US8207188B2, “Treatment of diseases modulated by a H4 receptor agonist” (priority 2006, dated 2012)
“And” between values parts separate entries of the source, which are not always exact repeats. Identical values can stand only once.

How the values were obtained:
recombinant human HDC = target: T1, recombinant human HDC (Homo sapiens, UniProt P19113); test: Human-HDC activity determination (14CO2 from L-[U-14C]histidine); assay type: biochemical; details: 10 μM final
T1 construct: The DNA encoding for residues 1-512 of human HDC; GST (fusion partner of the pGEX-6P-1 vector) (N, cleaved yes); made in house; host or cells: Escherichia coli BL21(DE3)pLysS
T1 sequence (P19113 1-512): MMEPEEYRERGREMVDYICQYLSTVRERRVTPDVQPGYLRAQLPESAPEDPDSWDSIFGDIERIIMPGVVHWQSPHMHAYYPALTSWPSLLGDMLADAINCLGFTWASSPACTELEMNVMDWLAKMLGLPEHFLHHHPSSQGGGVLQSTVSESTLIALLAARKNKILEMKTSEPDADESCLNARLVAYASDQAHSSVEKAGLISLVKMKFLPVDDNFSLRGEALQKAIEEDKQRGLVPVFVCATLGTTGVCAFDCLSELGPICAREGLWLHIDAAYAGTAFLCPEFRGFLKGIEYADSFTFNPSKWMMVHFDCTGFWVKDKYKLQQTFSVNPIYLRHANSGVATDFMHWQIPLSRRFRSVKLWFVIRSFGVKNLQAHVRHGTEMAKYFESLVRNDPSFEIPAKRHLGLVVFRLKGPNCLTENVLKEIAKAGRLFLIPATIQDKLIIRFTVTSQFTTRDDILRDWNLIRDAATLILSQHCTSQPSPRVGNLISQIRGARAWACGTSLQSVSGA
From the text: The DNA encoding for residues 1-512 of human HDC was subcloned in the pGEX-6P-1 vector (GE-Healthcare). The recombinant plasmid transformed into the Escherichia coli BL21(DE3)pLysS strain. Transformed cultures were induced to express the HDC 1/512, which was purified by affinity chromatography using Glutathione sepharose (GE-Healthcare). 1/512 HDC was released from the fusion protein bound to the affinity chromatography support by digestion with the Pre-Scission™ protease (GE-Healthcare). The final preparations were dissolved in 50 mM potassium phosphate, 0.1 mM PLP, pH 7.0. Purity of the HDC 1/512 construct was checked by Coomassie blue staining and Western blotting, and was higher than 95% in the final preparations.
HDC activity was assayed, as described in Engel at al. (1996) Biochem J. 320: 365-368, by measuring the production of ^14CO2 from L-[U-^14C]histidine (GE-Healthcare) in a mixture containing 0.2 mM dithiothreitol, 10 μM PLP, 10 mg/ml poly(ethylene glycol)-300, 100 mM potassium phosphate, pH 6.8, and purified protein in a total volume of 100 μL. When recombinant HDC was used, the concentration of L[U-^14C]histidine was 13.3 μM (with ⅓ isotopic dilution). The released ^14CO2 was measured as previously described for HDC activity determinations (Urdiales et al. (1992) FEBS Lett. 305, 260-264).
10 μM concentration of each isomer, A and B (A corresponds to the isolated pure isomer eluting at 5.9 minutes, B corresponds to the isolated pure isomer eluting at 7.1 minutes of the chromatogram shown in FIG. 4 (bottom)) and their corresponding racemic mixture (starting material prior to separating the individual isomers, indicated as A+B) along with 4 μg of recombinant human HDC were used to asses the inhibitory effect of each isomer and the mixture on the enzymatic conversion of histidine to histamine. Results are presented as means of duplicates samples.

[1] = system: human TF1 cells that express H4R; test: TF1 cell proliferation assay (GM-CSF promoted); assay type: cell-based
Procedure: Tritoqualine was tested on a cell proliferation assay using human TF1 cells that express H4R.
TF1 cell proliferation is promoted using granulocyte/macrophage colony-stimulating factor (GM-CSF). In this cell proliferation model H4R agonists inhibit cell proliferation. Clobenpropit (CB), a known H4R agonist at a dose of 10^−5M (10 μM) was used as a known cell proliferation inhibition control. […] Each experiment used 100,000 TF1 cells/mL incubated for three days with GM-CSF (10 ng/mL). After addition of TRQ in the range of 10^−5M (10 μM) to 10^−7 M (0.1 μM), and incubation for 3 days, cell proliferation was assessed and compared to that of 10 μM CB.

[2] = Spirometry parameter FEV1 in COPD patients; assay type: in vivo, human; parameters: T0 (initial visit) FEV1: unit not given here
Procedure: At the initial visit to the physician (T0), the patients were examined and the spirometry parameter FEV1 was recorded. Tritoqualine 200 mg/day were added to the patient's existing drug therapy. […] During each visit the patient's overall health and the FEV1 parameter was assessed by spirometry. […]

inhibition at 10 µM (recombinant human HDC): 17.5%
DPM (recombinant human HDC; 4 μg recombinant human HDC, means of duplicates, control 12340): 10176 DPM
Activity (recombinant human HDC; control 0.35): 0.29 µmol/h
Specific activity (recombinant human HDC; control 87.00): 71.74 μmole/h · mg prot
remaining activity at 10 µM (recombinant human HDC; read-out: % of control): 82.5%
SMILES: CCOc1c(N)c2c(c(OCC)c1OCC)C(C1c3c(cc4c(c3OC)OCO4)CCN1C)OC2=O (racemic) [Tritoqualine, 7-Amino-4,5,6-triethoxy-3-(5,6,7,8-tetrahydro-4-methoxy-6-methyl-1,3-dioxolo[4,5-g]isoquinolin-5-yl) phthalide]
inhibition of cell proliferation ([1]; 0.1 μM): no inhibition of cell proliferation
inhibition at 10 µM ([1]; Homo sapiens, TF-1, 72 h, 10 μM, 3 days, three separate assays (n=3)): 49%
inhibition at 1 µM ([1]; Homo sapiens, TF-1, 1 μM): 18%
T0 (initial visit) FEV1 ([2]; Example 12, 13 COPD patients, one line per patient, baseline before Tritoqualine): 1.00 (2×) and 2.39 and 1.86 (2×) and 1.60 and 1.53 and 1.64 and 1.32 and 0.82 and 0.58 and 2.28 and 1.30
improvement of FEV1 from visit T0 to T1 (paired t-test) ([2]; Example 12, 13 patients, P=0.0012): statistically significant improvement
Mean, Visit T1 ([2]; Example 12, N 13, 6-8 weeks of Tritoqualine 200 mg/day, FEV1 relative to expected normal value): 77.69
Mean, Visit T0 ([2]; Example 12, N 13, baseline, FEV1 relative to expected normal value): 65.3
FEV1 as percent of expected normal value ([2]; Example 12, per patient, 6-8 weeks of Tritoqualine 200 mg/day): 50.76% and 97.74% and 85.50% and 71.77% and 92.96% and 72.24% and 87.41% and 64.90% and 68.42% and 43.53% and 88.24% and 88.89% and 105.12%
FEV1 as percent of expected normal value ([2]; Example 12, per patient, baseline): 50.76% and 89.85% and 47.33% and 76.56% and 71.83% and 62.36% and 74.07% and 53.88% and 53.95% and 34.12% and 83.82% and 72.22% and 86.51%
T2 (6-8 weeks follow-up visit) FEV1 normalized ([2]; Example 12, per patient, Tritoqualine 200 mg/day added to existing therapy): 1.00 and 2.60 and 3.36 and 1.50 and 1.98 and 1.90 and 1.18 and 1.59 and 1.04 and 0.74 and 2.40 and 1.60 and 2.26
